# Measured values: ChEMBL document CHEMBL4002641, “Indolyl-naphthyl-maleimides as potent and selective inhibitors of protein kinase C-α/β” (Bioorg Med Chem Lett, 2017)
# Legend:
# [1] = target: T1, Protein kinase C beta type (Homo sapiens, UniProt P05771); assay: Inhibition of PKCbeta1 (unknown origin) after 60 mins in presence of [gamma33P]ATP by scintillation proximity assay
# [2] = target: T2, Protein kinase C alpha type (Homo sapiens, UniProt P17252); assay: Inhibition of PKCalpha (unknown origin) after 60 mins in presence of [gamma33P]ATP by scintillation proximity assay
# [3] = target: T3, Protein kinase C theta type (Homo sapiens, UniProt Q04759); assay: Inhibition of PKCtheta (unknown origin) after 60 mins in presence of [gamma33P]ATP by scintillation proximity assay
# [4] = target: T4, Protein kinase C epsilon type (Homo sapiens, UniProt Q02156); assay: Inhibition of PKCepsilon (unknown origin) after 60 mins in presence of [gamma33P]ATP by scintillation proximity assay
# T4 sequence (Q02156 whole entry): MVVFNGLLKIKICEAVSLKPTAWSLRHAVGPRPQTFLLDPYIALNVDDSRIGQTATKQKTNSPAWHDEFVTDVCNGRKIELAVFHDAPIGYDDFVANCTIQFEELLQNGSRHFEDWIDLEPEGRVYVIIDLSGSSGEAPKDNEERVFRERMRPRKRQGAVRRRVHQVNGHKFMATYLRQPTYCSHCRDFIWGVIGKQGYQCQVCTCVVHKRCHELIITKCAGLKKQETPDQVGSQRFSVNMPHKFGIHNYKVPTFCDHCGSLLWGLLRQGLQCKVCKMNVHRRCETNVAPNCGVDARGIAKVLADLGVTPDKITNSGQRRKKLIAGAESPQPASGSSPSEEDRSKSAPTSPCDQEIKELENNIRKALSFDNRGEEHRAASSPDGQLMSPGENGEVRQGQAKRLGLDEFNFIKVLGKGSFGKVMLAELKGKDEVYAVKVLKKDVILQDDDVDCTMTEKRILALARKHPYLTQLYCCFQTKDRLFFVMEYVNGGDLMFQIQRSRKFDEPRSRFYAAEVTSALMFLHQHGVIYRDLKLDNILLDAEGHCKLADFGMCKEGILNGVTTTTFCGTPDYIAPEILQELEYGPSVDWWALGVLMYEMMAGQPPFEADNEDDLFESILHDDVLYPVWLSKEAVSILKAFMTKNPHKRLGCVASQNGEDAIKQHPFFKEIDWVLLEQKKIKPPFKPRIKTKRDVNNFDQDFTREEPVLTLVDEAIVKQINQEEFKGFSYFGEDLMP
# [5] = target: Protein kinase C delta type (Homo sapiens, UniProt Q05655); assay: Inhibition of PKCdelta (unknown origin) after 60 mins in presence of [gamma33P]ATP by scintillation proximity assay
# [6] = target: Protein kinase C eta type (Homo sapiens, UniProt P24723); assay: Inhibition of PKCeta (unknown origin) after 60 mins in presence of [gamma33P]ATP by scintillation proximity assay
# [7] = target: T5, Cyclin-dependent kinase 2 (Homo sapiens, UniProt P24941); assay: Inhibition of CDK2 (unknown origin) at 1 uM
# [8] = target: T1, Protein kinase C beta type; assay: Reversible competitive inhibition of PKCbeta1 (unknown origin)
# [9] = Aqueous solubility of the compound; type: physicochemical; conditions: buffer
# [10] = target: T5, Cyclin-dependent kinase 2; assay: Inhibition of CDK2 (unknown origin)
# [11] = target: T2, Protein kinase C alpha type; assay: Reversible competitive inhibition of PKCalpha (unknown origin)
# PBMC = assay: Inhibition of human PBMC proliferation assessed as decrease in [3H]-TdR uptake after 6 days by mixed lymphocyte reaction assay; type: functional, cell-based
# [12] = target: T3, Protein kinase C theta type; assay: Inhibition of PKCtheta in human Jurkat T cells assessed as reduction in anti-CD3/CD28 antibody-induced T-cell activation by measuring decrease in IL-2 secretion after 5 hrs by luciferase reporter gene assay; type: cell-based
# T1 sequence (P05771 whole entry): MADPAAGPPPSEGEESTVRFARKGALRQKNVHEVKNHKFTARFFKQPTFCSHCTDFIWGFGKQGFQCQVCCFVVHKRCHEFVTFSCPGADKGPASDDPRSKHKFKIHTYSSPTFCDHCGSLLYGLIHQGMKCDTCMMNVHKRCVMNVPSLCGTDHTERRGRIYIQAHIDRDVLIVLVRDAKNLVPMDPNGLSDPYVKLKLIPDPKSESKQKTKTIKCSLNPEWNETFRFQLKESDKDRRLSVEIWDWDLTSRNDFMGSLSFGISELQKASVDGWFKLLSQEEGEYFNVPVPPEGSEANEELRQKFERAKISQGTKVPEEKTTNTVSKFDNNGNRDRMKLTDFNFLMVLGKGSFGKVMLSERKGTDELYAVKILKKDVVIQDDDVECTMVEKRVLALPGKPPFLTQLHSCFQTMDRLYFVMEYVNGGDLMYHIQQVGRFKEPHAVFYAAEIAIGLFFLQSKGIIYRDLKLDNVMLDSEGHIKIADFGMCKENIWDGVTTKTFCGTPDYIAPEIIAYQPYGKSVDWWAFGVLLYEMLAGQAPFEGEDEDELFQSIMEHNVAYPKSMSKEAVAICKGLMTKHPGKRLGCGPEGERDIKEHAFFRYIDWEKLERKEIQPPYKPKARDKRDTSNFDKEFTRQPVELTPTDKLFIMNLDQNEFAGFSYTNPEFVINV
# T3 sequence (Q04759 whole entry): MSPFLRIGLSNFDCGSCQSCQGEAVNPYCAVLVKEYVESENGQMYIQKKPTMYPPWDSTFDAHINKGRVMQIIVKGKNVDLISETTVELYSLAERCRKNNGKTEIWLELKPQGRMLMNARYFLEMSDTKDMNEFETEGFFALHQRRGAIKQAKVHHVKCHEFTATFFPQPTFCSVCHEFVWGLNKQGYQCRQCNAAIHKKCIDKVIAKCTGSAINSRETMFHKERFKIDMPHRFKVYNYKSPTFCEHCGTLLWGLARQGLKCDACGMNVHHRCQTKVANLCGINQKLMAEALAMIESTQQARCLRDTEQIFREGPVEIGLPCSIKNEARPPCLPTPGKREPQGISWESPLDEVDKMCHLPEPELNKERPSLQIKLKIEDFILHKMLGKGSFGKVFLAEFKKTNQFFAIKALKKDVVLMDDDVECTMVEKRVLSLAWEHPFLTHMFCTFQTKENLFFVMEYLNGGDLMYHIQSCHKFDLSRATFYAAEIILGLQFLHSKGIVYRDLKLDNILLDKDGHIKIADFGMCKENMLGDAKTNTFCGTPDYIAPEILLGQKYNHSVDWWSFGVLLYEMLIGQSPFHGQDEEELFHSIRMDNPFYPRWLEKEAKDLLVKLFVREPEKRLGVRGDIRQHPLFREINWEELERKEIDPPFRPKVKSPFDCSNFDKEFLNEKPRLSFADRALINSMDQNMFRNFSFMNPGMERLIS
# Sequence of Protein kinase C delta type (Q05655 whole entry): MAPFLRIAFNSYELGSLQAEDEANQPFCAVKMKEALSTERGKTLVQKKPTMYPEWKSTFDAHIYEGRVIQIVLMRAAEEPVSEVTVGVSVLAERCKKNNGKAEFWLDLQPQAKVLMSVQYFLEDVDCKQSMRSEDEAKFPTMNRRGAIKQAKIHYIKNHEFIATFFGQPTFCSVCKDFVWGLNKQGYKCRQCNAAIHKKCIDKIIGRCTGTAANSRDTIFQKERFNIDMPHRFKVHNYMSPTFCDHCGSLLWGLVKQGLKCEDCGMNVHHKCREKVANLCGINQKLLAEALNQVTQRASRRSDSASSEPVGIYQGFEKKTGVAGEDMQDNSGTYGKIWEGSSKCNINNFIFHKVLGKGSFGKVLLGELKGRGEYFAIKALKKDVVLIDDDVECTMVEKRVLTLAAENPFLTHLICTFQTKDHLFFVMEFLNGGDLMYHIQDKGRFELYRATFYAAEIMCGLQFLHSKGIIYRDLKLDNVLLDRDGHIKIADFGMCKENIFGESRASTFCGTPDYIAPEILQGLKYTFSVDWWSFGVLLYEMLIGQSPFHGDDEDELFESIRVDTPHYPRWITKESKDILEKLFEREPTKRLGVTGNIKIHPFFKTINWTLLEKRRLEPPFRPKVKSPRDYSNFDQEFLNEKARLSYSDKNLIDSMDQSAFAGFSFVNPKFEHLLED
# Sequence of Protein kinase C eta type (P24723 whole entry): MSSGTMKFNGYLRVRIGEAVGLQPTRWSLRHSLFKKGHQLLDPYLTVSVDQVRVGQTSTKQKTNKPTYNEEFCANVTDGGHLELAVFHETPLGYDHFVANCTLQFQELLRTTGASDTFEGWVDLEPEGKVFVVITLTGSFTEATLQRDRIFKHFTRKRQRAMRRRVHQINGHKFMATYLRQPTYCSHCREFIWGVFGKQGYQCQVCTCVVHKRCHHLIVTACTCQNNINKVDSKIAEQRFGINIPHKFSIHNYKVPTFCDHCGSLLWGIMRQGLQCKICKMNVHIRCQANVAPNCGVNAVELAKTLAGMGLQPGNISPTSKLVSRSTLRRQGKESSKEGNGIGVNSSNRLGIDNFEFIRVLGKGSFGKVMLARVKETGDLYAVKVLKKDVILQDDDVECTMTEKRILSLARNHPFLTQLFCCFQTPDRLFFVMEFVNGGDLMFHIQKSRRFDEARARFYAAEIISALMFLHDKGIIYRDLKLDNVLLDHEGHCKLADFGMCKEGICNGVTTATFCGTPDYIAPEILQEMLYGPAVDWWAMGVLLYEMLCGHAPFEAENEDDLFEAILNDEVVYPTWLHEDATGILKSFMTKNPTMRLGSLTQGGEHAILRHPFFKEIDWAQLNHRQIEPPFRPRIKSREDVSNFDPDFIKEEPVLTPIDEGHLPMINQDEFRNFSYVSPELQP
IC50 [1] [µM],IC50 [2] [µM],IC50 [3] [µM],IC50 [4] [µM],IC50 [5] [µM],IC50 [6] [µM],inhibition [7] [%],Ki [8] [µM],solubility [9],IC50 [10] [µM],Ki [11] [µM],IC50 [12] [µM],Structure (SMILES),IC50 (PBMC) [µM]
0.133,0.136,0.276,0.225,0.092,0.308,,,,,,,Cn1cc(C2=C(c3cccc4cc(CN)ccc34)C(=O)NC2=O)c2ccccc21,
0.0037,0.004,0.263,0.402,0.214,0.565,> 50,0.0005,Insoluble,0.22,0.001,0.402,CN(C)Cc1ccc2ccc(Cl)c(C3=C(c4cn(C)c5ccccc45)C(=O)NC3=O)c2c1,0.277
0.06,0.063,> 0.316,> 0.316,> 0.316,> 0.316,,,Insoluble,,,> 3.55,CN(Cc1ccc2ccc(Cl)c(C3=C(c4cn(C)c5ccccc45)C(=O)NC3=O)c2c1)C1CC1,
0.0007,0.0005,0.216,0.182,0.303,0.316,,,Insoluble,,,0.708,CN(C)Cc1ccc2ccc(Cl)c(C3=C(c4c[nH]c5ccccc45)C(=O)NC3=O)c2c1,0.406
,,,,,,,,,,,0.081,CN1CCN(c2nc(C3=C(c4c[nH]c5ccccc45)C(=O)NC3=O)c3ccccc3n2)CC1 [SOTRASTAURIN],0.028
0.0031,0.0028,0.021,0.11,0.039,0.206,,,,,,,COCCNCc1ccc2ccc(Cl)c(C3=C(c4cn(C)c5ccccc45)C(=O)NC3=O)c2c1,
0.0068,0.0037,,0.018,0.017,0.03,,,Insoluble,,,0.185,CN(C)Cc1ccc2c(C3=C(c4cn(C)c5ccccc45)C(=O)NC3=O)c(Cl)ccc2c1,0.054
0.0034,0.0018,0.012,0.0043,,,,,Insoluble,,,0.156,CN(C)Cc1ccc2c(C3=C(c4c[nH]c5ccccc45)C(=O)NC3=O)c(Cl)ccc2c1,0.059
0.002,0.0034,0.254,0.223,0.23,0.316,,,,,,,Cn1cc(C2=C(c3c(Cl)ccc4ccc(CN5CCC5)cc34)C(=O)NC2=O)c2ccccc21,
0.075,0.036,> 0.316,> 0.316,> 0.316,> 0.316,,,,,,,NCc1ccc2cccc(C3=C(c4c[nH]c5ccccc45)C(=O)NC3=O)c2c1,
0.0033,0.0047,> 0.316,> 0.316,0.254,> 0.316,,,,,,,Cn1cc(C2=C(c3c(Cl)ccc4ccc(CN)cc34)C(=O)NC2=O)c2ccccc21,
0.093,0.073,> 0.316,> 0.316,> 0.316,> 0.316,,,,,,,Cn1cc(C2=C(c3cccc4ccc(CN)cc34)C(=O)NC2=O)c2ccccc21,
0.041,0.063,> 0.316,> 0.316,0.284,> 0.316,,,,,,,CC(=O)N(C)Cc1ccc2ccc(Cl)c(C3=C(c4cn(C)c5ccccc45)C(=O)NC3=O)c2c1,
0.043,0.049,> 0.316,> 0.316,> 0.316,> 0.316,,,,,,,Cc1ccc2ccc(CN)cc2c1C1=C(c2c[nH]c3ccccc23)C(=O)NC1=O,
0.0014,0.0005,0.021,0.03,0.015,0.034,,,,,,,CNCc1ccc2ccc(Cl)c(C3=C(c4cn(C)c5ccccc45)C(=O)NC3=O)c2c1,
0.042,0.095,> 0.316,> 0.316,> 0.316,> 0.316,,,,,,,Cc1ccc2ccc(CN)cc2c1C1=C(c2cn(C)c3ccccc23)C(=O)NC1=O,
0.0029,0.0027,0.101,0.073,0.079,0.182,,,,,,,CC(C)NCc1ccc2ccc(Cl)c(C3=C(c4cn(C)c5ccccc45)C(=O)NC3=O)c2c1,
